Source: patent publication US9480280B2, “Taste modifiers” (Givaudan S.A., priority 2012, dated 2016)

Legend:
[1] = Skim milk evaluation of creamyness/mouthfeel enhancement; conditions: 10 ppm in skim milk, compared to base without compound
Description: Skim milk was used as a base to evaluate the creamyness/mouthfeel enhancement properties of the compounds. Samples with compound were compared to the base without compound added.

[2] = Rebaudioside A evaluation (taste descriptors); conditions: compared to base without compound
Description: A tasting base was prepared with 300 ppm Rebaudioside A in ater. Compounds were added to the base in the concentrations indicated in the table and compared to the base without compound added.

[3] = Kefir evaluation of creamyness/mouthfeel enhancement; conditions: compared to base without compound
Description: A commercial Kefir drink was used as a base to evaluate the creamyness/mouthfeel enhancement properties of the compounds. Samples with compound were compared to the base without compound added.

[4] = Sucralose evaluation of bitter masking; conditions: compared to base without compound
Description: Compounds were prepared in a sucralose base containing 80 ppm sucralose in water. Compounds were calculated in the base and compared to the base without may compound added.
A solution containing 80 ppm sucralose in water was used as a base to evaluate the bitter masking properties of the compounds. Samples with compound were compared to the base without compound added.

[5] = Low fat milk evaluation of creamyness/mouthfeel enhancement; conditions: 4 ppm in low fat milk (1.5-2% fat), compared to base without compound
Description: Low fat milk (1.5-2% fat) was used as a base to evaluate the creamyness/mouthfeel enhancement properties of the compounds. Samples with compound were compared to the base without compound added.

[6] = Sweetened yogurt evaluation of creamyness/mouthfeel enhancement; conditions: 10 ppm in yogurt with 5% sucrose and 0.03% creamy mouthfeel flavor, compared to base without compound
Description: Sweetened yogurt with flavor was used as a base to evaluate the creamyness/mouthfeel enhancement properties of the compounds. The yogurt base was sweetened with 5% sucrose and 0.03% creamy mouthfeel flavor (Givaudan 97584209). Samples with compound were compared to the sweetened base without compound added.

[7] = Red Bull drink evaluation of masking; conditions: compared to base without compound
Description: A commercial Red Bull™ Energy drink was used as a base to evaluate the masking properties of the compounds. Compounds were added to the base in the concentrations indicated in the table and compared to the base without compound added.

[8] = J. Agr. Food. Chem. 2007, 55, 9634-9645; cited from earlier work
[9] = 2 ppm in 300 ppm Rebaudioside A in water
[10] = 5 ppm in 300 ppm Rebaudioside A in water
[11] = 10 ppm in 300 ppm Rebaudioside A in water
[12] = 5 ppm in commercial Kefir drink
[13] = 2 ppm in 80 ppm sucralose in water
[14] = 5 ppm in 80 ppm sucralose in water
[15] = 10 ppm in 80 ppm sucralose in water
[16] = 2 ppm in commercial Kefir drink
[17] = 10 ppm in Red Bull Energy drink

For CCC(O)CCCCCCC(=O)O (stereo not drawn) [8-Hydroxy decanoic acid, 8-hydroxydecanoic Acid], the “Taste Description” value [1] was “Some mouthfeel effect”, the “Taste Description” value [2, 9] was “Less bitter, less bitter” and the “Taste Description” value [2, 10] was “Less bitter, less bitter”. For the same compound, the “Taste Description” value [2, 11] was “Helps overall especially”, the “Taste Description” value [3, 12] was “Creamy. fatty mouthfeel. good” and the “Taste Description” value [4, 13] was “Less lingering, more”. The “Taste Description” value [4, 14] was “Velvety mouthfeel. very full”, the “Taste Description” value [4, 15] was “No masking, adds” and the “Taste Description” value [5] was “Slight mouthfeel”. The “Taste Description” value [6] was “Lingering waxy profile, fattier”.

In the case of CCC(O)CCCC1CCC(=O)O1 (stereo not drawn) [8-hydroxy gamma decalactone, 5-(4-hydroxyhexyl)dihydrofuran-2(3H)-one], the “Taste Description” value [1] is reported as “Some mouthfeel effect”, the “Taste Description” value [2, 9] is reported as “Masks lots of bitter, less” and the “Taste Description” value [2, 10] is reported as “Some masking”. The “Taste Description” value [2, 11] was “High offnote, masks more”, the “Taste Description” value [3, 16] was “Much creamier, fattier, fuller,” and the “Taste Description” value [3, 12] was “more mid body, creamier”. The “Taste Description” value ([7]; 5 ppm in Red Bull Energy drink) was “Good masking. less sweet”, the “Taste Description” value [7, 17] was “Offnote, similar to control” and the “Taste Description” value [4, 13] was “Floral, little masking, waxy,”. The “Taste Description” value [4, 14] was “Some effect” and the “Taste Description” value [4, 15] was “Masks sweetness, floral,”.

For CC(O)CCCCCCCC(=O)O (stereo not drawn) [9-Hydroxy decanoic acid, 9-hydroxydecanoic Acid], the “Taste Description” value [1] was “Some mouthfeel effect”, the “Taste Description” value [2, 9] was “Less bitter, lingering, more” and the “Taste Description” value [2, 10] was “Less bitter, lingernig, waxy,”. The “Taste Description” value [2, 11] was “Offtaste, not much”, the “Taste Description” value [3, 16] was “Very creamy, slight mouthfeel, more” and the “Taste Description” value [3, 12] was “Very creamy, mouth-coating, smooth,”. For the same compound, the “Taste Description” value [7, 17] was “Masks better than control”, the “Taste Description” value [4, 13] was “Less bitter. lingering, more” and the “Taste Description” value [4, 14] was “Backend masks lingering”. The “Taste Description” value [4, 15] was “Nice mouthfeel, full upfront”, the “Taste Description” value [5] was “Slightly more mouthfeel” and the “Taste Description” value [6] was “Lingering waxy profile, fattier”.

With CC(O)CCCCC1CCC(=O)O1 (stereo not drawn) [9-hydroxy gamma decalactone, 5-(5-hydroxyhexyl)dihydrofuran-2(3H)-one] the “Taste Description” value [1] was “No mouthfeel”, the “Taste Description” value [2, 9] was “Slight fatty note at end” and the “Taste Description” value [2, 10] was “Not much”. The “Taste Description” value [2, 11] was “High offnote, changes”, the “Taste Description” value [3, 16] was “More creamy than control, upfront” and the “Taste Description” value [3, 12] was “More dairy note, more mid body”. For the same compound, the “Taste Description” value ([7]; 5 ppm in Red Bull Energy drink) was “Less sweetness, strong linger”, the “Taste Description” value [7, 17] was “Good masking, offnote” and the “Taste Description” value [4, 13] was “Floral, little masking, waxy,”. For the same compound, the “Taste Description” value [4, 14] was “Some effect” and the “Taste Description” value [4, 15] was “High offnote. masks”.

For CCCCCCCCCC1CCCC(=O)O1 (stereo not drawn) [δ-tetradecalactone], the “effect on cream flavour / creaminess” value [8] is given as “able to enhance the retronasal cream flavour”.
